Test results as given in PubChem BioAssay AID2137 (Broad Institute, 2009).
pIC50: −log10 of the molar value. Several values for one entry are separate records, joined by “and”; a condition that tells them apart may be missing. Equal entries are not always repeated. Records with an inconclusive call do not appear. Activity calls are given as the source filed them.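 The calls were made as follows: active = IC50 at most ten times the top tested dose; inconclusive = flat fit with 30 to 70% activity, or an invalid poor fit; inactive = the rest.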

What follows are molecules tested against S. pyogenes M1 GAS streptokinase expression, plasminogen activation OD405 (assay: reduced streptokinase-driven plasminogen activation (OD405), dose response, streptokinase expression inhibitor project, absorbance readout, M1 GAS (AID 2137)).

Compared with `CC1CCN(C(=O)N2c3ccccc3Sc3ccccc32)CC1`, `Cc1ccc(C(=O)N2c3ccccc3Sc3ccccc32)cc1` is 0.50 log units lower in pIC50: 4.83 for the first, 4.33 for the second. The first is the more potent here.

`COc1ccc(Nc2ncnc3scc(-c4ccc(OC)cc4)c23)cc1` and `COc1ccc(-c2csc3ncnc(N4CCN(c5ccccc5Cl)CC4)c23)cc1` are within 0.2 log units of each other in pIC50: 5.24 for the first, 5.18 for the second.

First: COc1ccc(-c2nc(-c3cccs3)c(-c3cccs3)[nH]2)cc1OC
Second: CCOC(=O)c1c(NC(=O)c2cccs2)sc(CC)c1-c1cccs1
The pIC50 of the first is 0.57 log units higher: 5.23 for the first, 4.66 for the second.

Going from `Cc1ccc(C(=O)C(c2ccccc2)N2Cc3ccccc3C2=N)cc1` (stereo not given) to `Cc1ccc(C(=O)n2c3ccccc3c3ccccc32)cc1`, the pIC50 rises from 5.08 to 5.54 (0.46 log units). The second is the more potent here.

`O=C(c1ccccc1C(F)(F)F)n1c2ccccc2c2ccccc21` and `O=C(c1ccc(OC(F)(F)F)cc1)n1c2ccccc2c2ccccc21` are within 0.2 log units of each other in pIC50: 5.18 for the first, 5.20 for the second.

`CC(C)c1ccc(NC(=O)c2cc(S(=O)(=O)NCC3COc4ccccc4O3)ccc2F)cc1` (stereo not given) and `O=C(Nc1cc(S(=O)(=O)Nc2ccc(Cl)cc2)ccc1N1CCCCC1)c1ccc(F)cc1` are within 0.2 log units of each other in pIC50: 5.44 for the first, 5.40 for the second.

Going from `CC[C@@H](C)[C@H](NC(=O)OC(C)(C)C)c1nnc(S(=O)(=O)Cc2cc(C)ccc2C)o1` to `Cc1cc2oc(=O)cc(CN(C)Cc3ccccc3)c2cc1C(C)C`, the pIC50 falls from 5.38 to 5.04 (0.34 log units).

`CC(=O)N(C)c1ccc(OCC(O)Cn2c3ccc(Cl)cc3c3cc(Cl)ccc32)cc1` (stereo not given) and `CN(C)c1ccc(C(=O)n2c3ccccc3c3ccccc32)cc1` are within 0.2 log units of each other in pIC50: 5.31 for the first, 5.39 for the second.

First: O=C(CSc1ccccc1)N1c2ccccc2Sc2ccccc21
Second: O=C(CSc1ccncc1)N1c2ccccc2Sc2ccccc21
The pIC50 of the first is 0.96 log units higher: 5.04 for the first, 4.08 for the second. The first is the more potent here.

First: FC(F)(F)c1cccc(-c2cc3ccccc3nc2N2CCCC2)c1
Second: FC(F)(F)c1nc(N2CCN(c3ccccc3)CC2)nc2c1CCCCC2
The pIC50 of the first is 0.36 log units lower: 5.40 for the first, 5.76 for the second.

Compared with `Cn1c(=O)c2c(nc(SCc3ccccc3)n2Cc2ccc(Cl)cc2)n(C)c1=O`, `O=C(CSc1ccc(Cl)cc1)N1c2ccccc2Sc2ccccc21` is 0.28 log units higher in pIC50: 5.23 for the first, 5.51 for the second. The second is the more potent here.

First: Cc1ccc(/C=C/c2ccc(=O)n(Cc3ccccc3Cl)n2)cc1
Second: Clc1cccc(Cl)c1CSc1nnc(/C=C/c2ccccc2)o1
The pIC50 of the first is 0.51 log units lower: 4.85 for the first, 5.36 for the second. The second is the more potent here.

First: C=CCn1c(SCC#N)nc2c(c1=O)C(C)(C)Cc1ccccc1-2
Second: CN1C(=O)/C(=C\c2cccn2-c2ccc3ccccc3c2)C(=O)NC1=S
The pIC50 of the first is 0.27 log units lower: 5.00 for the first, 5.27 for the second.

Compared with `Cc1cc(C)c(NC(=O)c2oc3ccccc3c2COc2ccccc2)c(C)c1`, `COc1ccc2oc(C(=O)N3CCN(C(c4ccccc4)c4ccccc4)CC3)c(C)c2c1` is 0.59 log units higher in pIC50: 4.01 for the first, 4.60 for the second. The second is the more potent here.

First: CC(C)(C)N/N=C1\CC(c2ccccc2)Oc2ccccc21 (stereo not given)
Second: COc1cccc(C(=O)n2c3ccccc3c3ccccc32)c1
The pIC50 of the first is 0.24 log units higher: 5.10 for the first, 4.86 for the second.

First: O=C(NC(=S)Nc1ccccc1N1CCCC1)c1ccccc1Br
Second: COC(=O)c1ccccc1NC(=O)c1nc(S(=O)(=O)Cc2ccccc2)ncc1Cl
The pIC50 of the first is 0.84 log units lower: 4.63 for the first, 5.47 for the second. The second is the more potent here.

First: CCCOc1ccc(-c2nc(OC)c3ccccc3n2)cc1
Second: COCc1cc(Sc2c(Cl)cccc2Cl)nc(-c2ccccc2)n1
The pIC50 of the first is 0.28 log units higher: 5.40 for the first, 5.12 for the second.

Going from `O=C(CSc1cccs1)N1c2ccccc2Sc2ccccc21` to `COc1ccc(SCC(=O)N2c3ccccc3Sc3ccccc32)cc1`, the pIC50 rises from 4.47 to 5.18 (0.71 log units). The second is the more potent here.

First: O=C(c1ccc(Cl)cc1)n1c2ccccc2c2ccccc21
Second: O=C(c1ccc(F)cc1)n1c2ccccc2c2ccccc21
The pIC50 of the first is 0.46 log units lower: 4.74 for the first, 5.20 for the second.

First: Cc1noc(C)c1CSc1nc2sc(C)c(C)c2c(=O)n1C1CCCC1
Second: CCC1CCCCN1S(=O)(=O)c1ccc(NC(=O)c2nc(S(C)(=O)=O)ncc2Cl)cc1 (stereo not given)
The pIC50 of the first is 0.43 log units lower: 5.50 for the first, 5.93 for the second.

First: CCN(CC)C(=S)SCC(=O)Nc1nc(-c2ccccc2)c(-c2ccccc2)o1
Second: Cc1cc(C(=O)OC(C(=O)Nc2cccc(C(F)(F)F)c2)c2ccccc2)c(C)o1 (stereo not given)
The pIC50 of the first is 0.46 log units lower: 4.69 for the first, 5.15 for the second.

First: N#Cc1ccc(C(=O)n2c3ccccc3c3ccccc32)cc1
Second: COc1ccc(Sc2ccc(NC(=O)c3ccccc3Cl)cc2C#N)cc1
The pIC50 of the first is 1.40 log units lower: 4.24 for the first, 5.64 for the second. The second is the more potent here.

Compared with `Cc1cc(C)c2nc(-c3ccncc3)cc(C(=O)N3CCN(Cc4ccccc4Cl)CC3)c2c1`, `O=C(CSc1nc(-c2ccc(Cl)cc2)[nH]c(=O)n1)Nc1cccc(Cl)c1` is 0.43 log units higher in pIC50: 5.02 for the first, 5.45 for the second.

`CC1CC(C)CN(c2ncc3c(n2)CC(c2ccccc2Cl)CC3=O)C1` (stereo not given) was tested, and the pIC50 was 5.65.

`FC(F)(F)c1cc(-c2ccco2)nc(NCc2ccc(Cl)cc2)n1` was tested, and the IC50 was > 500 µM (inactive).
For `CCCCn1c(=O)c(C(=O)NCc2ccccc2)c(O)c2ccccc21`, the IC50 was > 500 µM (inactive).

In the case of `Cc1ccc(SCC(=O)N2c3ccccc3Sc3ccccc32)cc1`, the pIC50 was 5.12 and 5.25.
